Among the data in patent US11571480B2, “Multi-ligand drug conjugates and uses thereof” (priority 2015, dated 2023) are IC50 values, retold here.

Data set [1] deals with human colon carcinoma HCT-116. Description: Cytotoxicity test of conjugate LDC12B. Format: cell-based. The following applies: HCT-116, incubated 15-30 min, then 2-3 days. The protocol: (§1) Culture medium: RPMI 1640 Medium, no folic acid
(§2) 1) human endometrial cancer cell HEC-1A, human gastric cancer cell line GTL-16, human colon carcinoma HCT-116, human neuroblastoma cell line SH-SY5Y were incubated at 37° C., 5% CO2 in RPMI 1640 medium containing 10% fetal bovine serum, the cells were passaged every 2-3 days.
(§3) 2) human endometrial cancer cell HEC-1A, human gastric cancer cell line GTL-16, Human colon carcinoma HCT-116, human neuroblastoma cell line SH-SY5Y were plated at 1×10^3 cells per well (96-well plate) and incubated for 8-12 h at 37° C., 5% CO2.
(§4) 3) Stock solutions of LDC conjugates or control were prepared in PBS solution. 100 μL/well of serially diluted LDC conjugates or control was added to the cells in the plate and incubated for 15-30 min at 37° C., 5% CO2. The culture medium in the wells was then removed by aspiration and the cells were incubated in fresh culture medium without conjugates (150 μL/well) for 2-3 days at 37° C., 5% CO2.
(§5) 4) CellTiter 96® Aqueous One Solution Cell Proliferation Assay (Promega) was added to each well to measure the amount of […] cells, and the plate was incubated in an incubator for 1 h at 37° C., 5% CO2.
(§6) 5) the plate was read at 490 nm on a microplate reader, and the cell survivals were compared for cells with or without the treatment of LDC conjugates. The LDC drug concentrations that are required for 50% cell death (IC50 values) were determined.

The subject of data set [2] is human gastric cancer cell line GTL-16. The data set is described as follows: Cytotoxicity test of conjugate LDC12B. Format: cell-based. The following applies: GTL-16, incubated 15-30 min, then 2-3 days. Here is the method:
as §1, §2, §3, §4, §5, §6

Data set [3] concerns human endometrial cancer cell HEC-1A. Description: Cytotoxicity test of conjugate LDC12B. Format: cell-based. Particulars: incubated 15-30 min, then 2-3 days. Here is the method:
as §1, §2, §3, §4, §5, §6

The subject of data set [4] is human neuroblastoma cell line SH-SY5Y. The data set is described as follows: Cytotoxicity test of conjugate LDC12B. Format: cell-based. The following applies: incubated 15-30 min, then 2-3 days. Here is the method:
as §1, §2, §3, §4, §5, §6

Data set [5] has as its system breast cancer cell line HCC1954. Description: Cytotoxicity test of conjugate LDC10H. Format: cell-based, human. Particulars: HCC1954, incubated 15-30 min, then 2-3 days. Here is the method:
as §1
(§7) 1) human lung cancer cell H1299, ovarian cancer cell SKOV3, breast cancer cell line HCC1954, and human lung cancer cell H460 were incubated at 37° C., 5% CO2 in RPMI 1640 medium containing 10% fetal bovine serum, the cells were passaged every 2-3 days.
(§8) 2) human lung cancer cell H1299, ovarian cancer cell SKOV3, breast cancer cell line HCC1954, and human lung cancer cell H460 were plated at 1×10^3 cells per well (96-well plate) and incubated for 8-12 h at 37° C., 5% CO2.
as §4, §5, §6

Data set [6] has as its system ovarian cancer cell SKOV3. The data set is described as follows: Cytotoxicity test of conjugate LDC10H. The class given is cell-based, human. The following applies: SKOV3, incubated 15-30 min, then 2-3 days. The protocol:
as §1, §7, §8, §4, §5, §6

Data set [7] concerns ovarian cancer cell SKOV3. The data set is described as follows: Cytotoxicity test of conjugate LDC11B. The class given is cell-based, human. The following applies: SKOV3, incubated 15-30 min, then 2-3 days. Here is the method:
as §1
(§9) 1) human lung cancer cell H460, ovarian cancer cell SKOV3, human embryonic kidney cell 293A were incubated at 37° C., 5% CO2 in RPMI 1640 medium containing 10% fetal bovine serum, the cells were passaged every 2-3 days.
(§10) 2) human lung cancer cell H460, ovarian cancer cell SKOV3, human embryonic kidney cell 293A were plated at 1×10^3 cells per well (96-well plate) and incubated for 8-12 h at 37° C., 5% CO2.
as §4, §5
(§11) 5) The plate was read at 490 nm on a microplate reader, and the cell survivals were compared for cells with or without the treatment of LDC conjugates. The LDC drug concentrations that are required for 50% cell death (IC50 values) were determined.

Data set [8] has as its system melanoma cell line A375. Description: Cytotoxicity test of conjugate LDC10BR. The class given is cell-based. Particulars: A375, incubated 15-30 min, then 2-3 days. Here is the method: as §1
(§12) 1) human nasopharyngeal cancer cell line KB, melanoma cell line A375, and human lung cancer cell H460 were incubated at 37° C., 5% CO2 in RPMI 1640 medium containing 10% fetal bovine serum, the cells were passaged every 2-3 days.
(§13) 2) human nasopharyngeal cancer cell line KB, melanoma cell line A375, and human lung cancer cell H460 were plated at 1×10^3 cells per well (96-well plate) and incubated for 8-12 h at 37° C., 5% CO2.
as §4, §5, §6

Data set [9] has as its system human lung cancer cell H460. Description: Cytotoxicity test of conjugate LDC10BR. Format: cell-based. The following applies: H460, incubated 15-30 min, then 2-3 days. The protocol: as §1, §12, §13, §4, §5, §6
Data set [10] deals with human nasopharyngeal cancer cell line KB. Description: Cytotoxicity test of conjugate LDC10BR. The following applies: incubated 15-30 min, then 2-3 days. The class given is cell-based. Here is the method:
as §1, §12, §13, §4, §5, §6

Data set [11] relates to human colon carcinoma HCT-116. The data set is described as follows: Cytotoxicity test of conjugate LDC13B. Particulars: HCT-116, incubated 15-30 min, then 2-3 days. Format: cell-based. The protocol: as §1
(§14) 1) human nasopharyngeal cancer cell line KB, human colon carcinoma HCT-116, human prostatic cancer cell PC-3, human gastric cancer cell line GTL-16, human endometrial cancer cell HEC-1A, and human gastric cancer cell N87 were incubated at 37° C., 5% CO2 in RPMI 1640 medium containing 10% fetal bovine serum, the cells were passaged every 2-3 days.
(§15) 2) human nasopharyngeal cancer cell line KB, human colon carcinoma HCT-116, human prostatic cancer cell PC-3, human gastric cancer cell line GTL-16, human endometrial cancer cell HEC-1A, and human gastric cancer cell N87 were plated at 1×10^3 cells per well (96-well plate) and incubated for 8-12 h at 37° C., 5% CO2.
as §4, §5, §6

Data set [12] has as its system human gastric cancer cell line GTL-16. Description: Cytotoxicity test of conjugate LDC13B. The class given is cell-based. Particulars: GTL-16, incubated 15-30 min, then 2-3 days. Here is the method:
as §1, §14, §15, §4, §5, §6

Data set [13] deals with human endometrial cancer cell HEC-1A. The data set is described as follows: Cytotoxicity test of conjugate LDC13B. Particulars: incubated 15-30 min, then 2-3 days. Format: cell-based. Here is the method:
as §1, §14, §15, §4, §5, §6

The test system of data set [14] is human prostatic cancer cell PC-3. The data set is described as follows: Cytotoxicity test of conjugate LDC13B. The following applies: PC-3, incubated 15-30 min, then 2-3 days. The class given is cell-based. Here is the method: as §1, §14, §15, §4, §5, §6
In data set [15] the test system is human gastric cancer cell N87. Description: Cytotoxicity test of conjugate LDC13B. The class given is cell-based. The following applies: N87, incubated 15-30 min, then 2-3 days. Here is the method: as §1, §14, §15, §4, §5, §6
Data set [16] deals with human nasopharyngeal cancer cell line KB. The data set is described as follows: Cytotoxicity test of conjugate LDC13B. Format: cell-based. Particulars: KB, incubated 15-30 min, then 2-3 days. The protocol:
as §1, §14, §15, §4, §5, §6

In data set [17] the test system is human embryonic kidney cell 293A. Description: Cytotoxicity test of conjugate LDC11B. Format: cell-based. The following applies: incubated 15-30 min, then 2-3 days. The protocol: as §1, §9, §10, §4, §5, §11
Data set [18] deals with human lung cancer cell H460. The data set is described as follows: Cytotoxicity test of conjugate LDC11B. The class given is cell-based. Particulars: H460, incubated 15-30 min, then 2-3 days. The protocol:
as §1, §9, §10, §4, §5, §11

Data set [19] concerns melanoma cell line A375. The data set is described as follows: Cytotoxicity test of conjugate LDC1013. Format: cell-based. The following applies: A375, incubated 15-30 min, then 2-3 days. The protocol: as §1, §12, §13, §4, §5, §6
In data set [20] the test system is human lung cancer cell H460. The data set is described as follows: Cytotoxicity test of conjugate LDC1013. Format: cell-based. The following applies: H460, incubated 15-30 min, then 2-3 days. The protocol:
as §1, §12, §13, §4, §5, §6

Data set [21] relates to human nasopharyngeal cancer cell line KB. Description: Cytotoxicity test of conjugate LDC1013. Format: cell-based. The following applies: incubated 15-30 min, then 2-3 days. The protocol: as §1, §12, §13, §4, §5, §6

The IC50 is the concentration that inhibits the measured activity by half. Read a low IC50 as greater potency in that assay.

Square brackets hold non-standard residues; d marks the D form. Peptide text beside a SMILES is read from it. * marks the point of attachment. Dolaproine = CO[C@@H]([C@@H]1CCCN1)[C@@H](C)C(=O)O; Dil = CC[C@H](C)[C@H](NC)[C@@H](CC(=O)O)OC; X1 = C[C@@H](N*)[C@@H](O)c1ccccc1; NMeV = CN[C@H](C(=O)O)C(C)C

As to `CC[C@H](C)[C@@H]([C@@H](CC(=O)N1CCC[C@H]1[C@H](OC)[C@@H](C)C(=O)N[C@H](C)[C@@H](O)c1ccccc1)OC)N(C)C(=O)[C@@H](NC(=O)[C@@H](NC)C(C)C)C(C)C` [MMAE] (H-[NMeV]V[Dil][Dolaproine]-X1), the half-maximal inhibitory concentration (IC50) in [1] came out at 12.7 nM; in data set [2], 6.38 nM; in data set [3], 8.74 nM; in [4], 24 nM; in data set [5], 0.29 nM; in data set [6], 0.49 nM. In addition, the IC50 in data set [7] amounted to 0.44 nM; in [8], 85 nM; in [9] it was 37 nM; in data set [10], 20 nM; in data set [11], 12.7 nM; in data set [12], 6.38 nM. Further, the IC50 was 8.74 nM in [13]; 12.8 nM in data set [14]; 3.83 nM in [15]; 28.8 nM in data set [16]; 0.86 nM in data set [17]; 0.58 nM in [18]. The IC50 in [19] was 85 nM; in data set [20], 37 nM; in [21] it was 20 nM.
